Data: the supplement of paper PMC10307832

What was measured:
Test in all cases: relative viability (nuclei count vs DMSO), 5 days (fraction); higher = more cells survive
[1] = compound: CN(C)C[C@@H]1CCn2cc(c3ccccc32)C2=C(C(=O)NC2=O)c2cn(c3ccccc23)CCO1 [Ruboxistaurin] + CC(=O)Nc1cccc(-n2c(=O)n(C3CC3)c(=O)c3c(Nc4ccc(I)cc4F)n(C)c(=O)c(C)c32)c1 [Trametinib] (partner 0.02 µM)
Outline: (§1)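 One day after seeding in 1536-well plates, lung cancer cell lines were dosed by pin tool. Dosing was either single-drug or a fixed anchor-drug dose plus five library-drug doses (not always all listed) in √10 steps. After 5 days, nuclei were stained in one fix-and-stain step and counted on 4× images, and relative viability is the nuclei count of treated wells over that of vehicle wells, given as the median of duplicate plates.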

[2] = compound: CN(C)C[C@@H]1CCn2cc(c3ccccc32)C2=C(C(=O)NC2=O)c2cn(c3ccccc23)CCO1 [Ruboxistaurin] + CC(=O)c1c(C)c2cnc(Nc3ccc(N4CCNCC4)cn3)nc2n(C2CCCC2)c1=O [Palbociclib] (partner 0.5 µM)
Outline: as §1

[3] = compound: CN(C)C[C@@H]1CCn2cc(c3ccccc32)C2=C(C(=O)NC2=O)c2cn(c3ccccc23)CCO1 [Ruboxistaurin] + Cc1cc(Nc2cc(N3CCN(C)CC3)nc(Sc3ccc(NC(=O)C4CC4)cc3)n2)n[nH]1 [Tozasertib] (partner 0.1 µM)
Outline: as §1

[4] = compound: CN(C)C[C@@H]1CCn2cc(c3ccccc32)C2=C(C(=O)NC2=O)c2cn(c3ccccc23)CCO1 [Ruboxistaurin] + Cc1nc(Nc2ncc(C(=O)Nc3c(C)cccc3Cl)s2)cc(N2CCN(CCO)CC2)n1 [Dasatinib] (partner 0.075 µM)
Outline: as §1

Ruboxistaurin + AZD7762 = compound: CN(C)C[C@@H]1CCn2cc(c3ccccc32)C2=C(C(=O)NC2=O)c2cn(c3ccccc23)CCO1 [Ruboxistaurin] + NC(=O)Nc1cc(-c2cccc(F)c2)sc1C(=O)N[C@H]1CCCNC1 [AZD7762] (partner 0.2 µM)
Outline: as §1

Row | Cell Line | relative viability ([1]; first compound 0.08 µM) | relative viability ([1]; first compound 0.8 µM) | relative viability ([1]; first compound 2.53 µM) | relative viability ([1]; first compound 8 µM) | relative viability ([2]; first compound 0.08 µM) | relative viability ([2]; first compound 0.8 µM) | relative viability ([2]; first compound 2.53 µM) | relative viability ([2]; first compound 8 µM) | relative viability ([3]; first compound 0.08 µM) | relative viability ([3]; first compound 0.8 µM) | relative viability ([3]; first compound 2.53 µM) | relative viability ([3]; first compound 8 µM) | relative viability ([4]; first compound 0.08 µM) | relative viability ([4]; first compound 0.8 µM) | relative viability ([4]; first compound 2.53 µM) | relative viability ([4]; first compound 8 µM) | relative viability (Ruboxistaurin + AZD7762; first compound 0.08 µM) | relative viability (Ruboxistaurin + AZD7762; first compound 0.8 µM) | relative viability (Ruboxistaurin + AZD7762; first compound 2.53 µM) | relative viability (Ruboxistaurin + AZD7762; first compound 8 µM)
1 | NCI-H650 | 1.1 | 0.914 | 1.01 | 0.952 | 0.339 | 0.337 | 0.377 | 0.383 | 0.81 | 0.685 | 0.82 | 0.863 | 0.5 | 0.384 | 0.516 | 0.433 | 1.09 | 1.06 | 1.06 | 0.953
2 | NCI-H2347 | 0.306 | 0.293 | 0.256 | 0.167 | 0.441 | 0.425 | 0.358 | 0.42 | 0.557 | 0.468 | 0.614 | 0.415 | 0.683 | 0.272 | 0.283 | 0.229 | 0.989 | 0.73 | 0.797 | 0.606
3 | LXF-289 | 0.653 | 0.631 | 0.66 | 0.684 | 0.589 | 0.542 | 0.571 | 0.588 | 0.216 | 0.157 | 0.195 | 0.209 | 0.243 | 0.206 | 0.273 | 0.22 | 1.12 | 1.03 | 1.07 | 1.17
4 | BEN | 1.07 | 0.976 | 1.01 | 0.895 | 0.415 | 0.453 | 0.522 | 0.495 | 0.492 | 0.45 | 0.498 | 0.483 | 0.316 | 0.297 | 0.307 | 0.298 | 0.833 | 0.668 | 0.639 | 0.509
5 | NCI-H1355 | 0.462 | 0.361 | 0.394 | 0.357 | 0.399 | 0.338 | 0.412 | 0.418 | 0.529 | 0.485 | 0.484 | 0.38 | 0.774 | 0.614 | 0.638 | 0.464 | 0.901 | 0.615 | 0.709 | 0.576
6 | NCI-H1793 | 0.444 | – | 0.497 | 0.517 | 0.302 | – | 0.296 | 0.373 | 0.346 | 0.242 | 0.408 | 0.301 | 0.371 | 0.377 | 0.442 | 0.506 | 0.654 | – | 0.476 | 0.339
7 | NCI-H838 | 0.58 | 0.461 | 0.513 | 0.504 | 0.234 | 0.19 | 0.215 | 0.213 | 0.28 | 0.246 | 0.287 | 0.292 | 0.327 | 0.209 | 0.286 | 0.326 | 0.749 | 0.855 | 0.877 | 0.977
8 | EMC-BAC-2 | 0.94 | 0.841 | 0.775 | 0.721 | 0.51 | 0.506 | 0.514 | 0.493 | 0.29 | 0.254 | 0.272 | 0.17 | 0.328 | 0.262 | 0.256 | 0.138 | 1.12 | 1.05 | 1.11 | 0.891
9 | LU99A | 0.492 | 0.509 | 0.508 | 0.472 | 0.473 | 0.388 | 0.482 | 0.31 | 0.256 | 0.205 | 0.221 | 0.229 | 0.412 | 0.436 | 0.589 | 0.507 | 0.385 | 0.312 | 0.349 | 0.289
10 | PC-3 [JPC-3] | 0.821 | 0.653 | 0.715 | 0.685 | 0.561 | 0.487 | 0.518 | 0.556 | 0.91 | 0.852 | 0.852 | 0.841 | 1 | 0.97 | 0.967 | 0.944 | 0.869 | 0.754 | 0.906 | 0.675
11 | LCLC-97TM1 | 0.207 | 0.141 | 0.203 | 0.154 | 0.217 | 0.199 | 0.235 | 0.227 | 0.194 | 0.168 | 0.242 | 0.159 | 0.891 | 0.896 | 0.968 | 0.821 | 0.268 | 0.297 | 0.442 | 0.416
12 | NCI-H1993 | 0.486 | 0.43 | 0.51 | 0.467 | 0.716 | 0.666 | 0.712 | 0.556 | 0.574 | 0.541 | 0.568 | 0.538 | 0.78 | 0.422 | 0.561 | 0.555 | 0.958 | 0.57 | 0.93 | 0.296
13 | HARA | 0.674 | 0.636 | 0.653 | 0.684 | 0.214 | 0.263 | 0.266 | 0.326 | 0.0939 | 0.101 | 0.12 | 0.102 | 0.216 | 0.232 | 0.228 | 0.3 | 0.346 | 0.525 | 0.339 | 0.336
14 | NCI-H460 | 0.225 | 0.113 | 0.14 | 0.13 | 0.158 | 0.125 | 0.201 | 0.14 | 0.411 | 0.257 | 0.405 | 0.29 | 0.552 | 0.35 | 0.602 | 0.327 | 0.652 | 0.669 | 0.751 | 0.574
15 | EKVX | 0.359 | 0.287 | 0.336 | 0.281 | 0.414 | 0.318 | 0.424 | 0.321 | 0.411 | 0.401 | 0.415 | 0.367 | 0.641 | 0.476 | 0.551 | 0.579 | 0.607 | 0.623 | 0.649 | 0.656
16 | NCI-H1755 | 0.804 | 0.713 | 0.744 | 0.771 | 0.495 | 0.452 | 0.463 | 0.455 | 0.608 | 0.55 | 0.555 | 0.525 | 0.455 | 0.387 | 0.402 | 0.346 | 0.417 | 0.483 | 0.419 | 0.525
